Reference: paper PMC12010937, “Evaluation of FXR Activity in Pollutants Identified in Sewage Sludge and Subsequent in Vitro and in Vivo Characterization of Metabolic Effects of Triphenyl Phosphate” (Environmental Health Perspectives, 2025)
Values joined by “and” are separate entries in the source; they are usually repeats but may differ in a detail not shown here. Equal values may be shown once.

Experiments:
[1] = target: T1, human FXR-LBD (6His-FXR-LBD) (Homo sapiens, UniProt Q96RI1); assay: FXR protein affinity pull-down assay; assay type: binding; conditions: 100 nM OCA
T1 construct: human FXR (residues 243–472) was expressed and purified as an amino-terminal 6His fusion protein; made in house; host or cells: E. coli BL21(DE3)
T1 sequence (Q96RI1 243-472 isoform Q96RI1-2): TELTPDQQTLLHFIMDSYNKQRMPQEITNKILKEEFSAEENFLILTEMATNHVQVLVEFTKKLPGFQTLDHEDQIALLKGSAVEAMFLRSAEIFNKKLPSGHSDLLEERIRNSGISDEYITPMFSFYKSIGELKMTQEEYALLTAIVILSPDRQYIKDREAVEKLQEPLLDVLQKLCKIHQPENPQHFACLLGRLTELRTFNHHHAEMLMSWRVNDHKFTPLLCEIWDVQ
Text: The ligand binding domain (LBD) of human FXR (residues 243–472) was expressed and purified as an amino-terminal 6His fusion protein based on the prokaryotic expression vector pACYCDuet-1, and the pACYCDuet-1-6His-FXR-LBD plasmid was synthesized by the Beijing Genomics Institute (BGI). In detail, the gene encoding human FXR-LBD was first synthesized by BGI and then subcloned into the pACYCDuet-1 vector predigested with BamHI/NotI (SE0054/SE0594; SibEnzyme) according to the manufacturer’s protocol. In brief, the vector was predigested at 37°C for 15 min, subsequently mixed with the synthesized FXR-LBD cDNA and seamless assembly mix (BGI), and incubated at 52°C for 30 min. Then, the new plasmid construct pACYCDuet-1-6His-FXR-LBD was transformed into Escherichia coli Top10 Competent Cells (BGI) by heat shock transformation (the mixture was incubated on ice for 30 min, then incubated at 42°C for 90 s and transferred to ice for 3 min). Finally, the pACYCDuet-1-6His-FXR-LBD plasmid were extracted from the positive clone, confirmed by sequencing and provided by BGI. The pACYCDuet-1-6His-FXR-LBD plasmid was transformed into E. coli BL21(DE3) cells (Tiangen Biotech) by heat shock transformation (the mixture was incubated on ice for 30 min, then incubated at 42°C for 90 s, and then transferred to ice for 3 min). The transformed E. coli was grown in lysogeny broth (LB) medium at 37°C to OD600 about 0.8–1.0, and then protein expression was induced with 0.5 mM isopropyl β-d-1-thiogalactopyranoside (IPTG) at 25°C for 5 h. The cells were harvested by centrifugation at 4°C and 5,000×g for 10 min, and the harvested cells were subjected to ultrasonic disruption (5 s on, 7 s off, 150 cycles) using an ultrasonic homogenizer (Ningbo Scientz Biotechnology) and centrifugation at 4°C and 12,000×g for 1 h. […] Finally, the purity of the 6His-FXR-LBD protein was detected by sodium dodecyl sulfate-polyacrylamide gel electrophoresis (SDS-PAGE) with 4%–15% Bis-tris SDS-PAGE gel (Sangon Biotech), which was stained with Coomassie brilliant blue R250 Protein Stain Reagent (Coolaber). […]

[2] = target: T2, human FXR-LBD (GST-FXR-LBD) (Homo sapiens, UniProt Q96RI1); assay: HTRF coactivator recruitment assay, agonist mode; assay type: biochemical; conditions: FXR agonists (Figure S3A), replicates
T2 construct: the human FXR-LBD (residues 234–472) was expressed as a GST fusion protein GST-FXR-LBD; made in house; host or cells: E. coli BL21(DE3)
T2 sequence (Q96RI1 234-472 isoform Q96RI1-2): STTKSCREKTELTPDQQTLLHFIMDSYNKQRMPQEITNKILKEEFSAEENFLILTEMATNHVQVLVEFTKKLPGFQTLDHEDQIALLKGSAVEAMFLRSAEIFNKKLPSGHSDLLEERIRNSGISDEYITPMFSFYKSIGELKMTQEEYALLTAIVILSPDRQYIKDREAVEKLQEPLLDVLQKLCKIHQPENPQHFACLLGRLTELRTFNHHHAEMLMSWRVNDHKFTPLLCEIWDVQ

[3] = target: T2, human FXR-LBD (GST-FXR-LBD); assay: HTRF coactivator recruitment assay, antagonist mode (in the presence of 50 μM CDCA); assay type: biochemical; conditions: FXR antagonists (Figure S3B), replicates
FXR = tested on: FXR; design: method as in PMID 12166927; conditions: read-out: EC50 (FXR agonist); cited from earlier work

SMILES: CC[C@H]1[C@@H](O)[C@@H]2[C@H](CC[C@]3(C)[C@@H]([C@H](C)CCC(=O)O)CC[C@@H]23)[C@@]2(C)CC[C@@H](O)C[C@@H]12 [OCA, obeticholic acid]
- Recovery of OCA pulled down by control protein ([1]; boiled inactivated (denatured) FXR-LBD as negative control, n=3): 4.69% and 4.09% and 4.45%
- Recovery of OCA pulled down by the FXR-LBD protein ([1]; purified 6His-FXR-LBD, n=3): 91.28% and 89.1% and 85.93%
